Source: patent publication US12364699B2, “Method of treating hair loss disorders” (Sun Pharmaceutical Industries, Inc., priority 2023, dated 2025)

Legend:
[1] = Renal impairment study: single dose PK of CTP-543 and metabolites C-21714, C-21717; conditions: single 12 mg oral dose of CTP-543; normal renal function N = 8; geometric mean (geometric CV %)
Source text: The study enrolled 8 subjects in the normal renal function cohort, and 8 subjects in the moderate impaired renal function cohort.
The primary endpoint of this study was single dose PK exposure parameters: Cmax, AUC(0-Tlast), and AUC(0-∞).
The secondary endpoints of this study were: • Adverse Events, clinical laboratory findings, physical examinations, ECGs, and vital signs. • Other PK parameters, such as, but not limited to: Tmax, λz, t1/2, CL/F, and Vz/F.
(§1) All subjects had samples collected for PK.
PK parameters were determined using non-compartmental analysis (NCA) methods based on individual plasma concentration-time data for all PK analytes.

plasma protein = experiment: Renal impairment study: plasma protein binding of CTP-543; type: in vitro ADME, human; conditions: 2 hours post-dose; moderate renal impairment vs matched controls with normal renal function
Source text: as §1

[2] = test system: adult subjects with moderate to severe AA; experiment: Phase III trial: Hair Satisfaction Patient Reported Outcome (SPRO); type: in vivo, human; conditions: for percentage of subjects with a ≥2 point change from baseline on SPRO: 12 mg BID
Source text: The SPRO is a single-item questionnaire answered by the subject and designed to measure how satisfied Alopecia Areata subjects are with their hair at the time of the assessment. Subjects answer questions on a scale of 1 to 5, representing “Very satisfied” to “Very dissatisfied.” Satisfaction categories 1-5 of the scale were defined as follows: 1=“Very Satisfied”; 2=“Satisfied”; 3=“Neither Satisfied nor Dissatisfied”; 4=Dissatisfied”; and 5=“Very Dissatisfied”.
The results of the SPRO was analyzed in three different ways: 1) the percentage of responders, 2) the change from baseline, and 3) the percentage of subjects achieving a ≥2.0 point change from baseline.
A Phase III trial was conducted to assess the efficacy and safety of CTP-543 in adult subjects with moderate to severe AA. Approximately 440 adult male and female subjects 18 to 65 years of age, inclusive, with moderate to severe AA participated in the study. Subjects with definitive diagnosis of AA, and at least 50% hair loss, as defined by a SALT score ≥50, who met all of the inclusion criteria and none of the exclusion criteria participated in the study.
The Screening Period lasted up to 28 days prior to initiation of study drug. […] Randomization was stratified by scalp hair loss into 1 of the following 2 categories: 1) partial scalp hair loss (SALT ≥50 and <95), 2) complete or near complete scalp hair loss (SALT ≥95).
The key secondary efficacy endpoints were the percentage of responders (defined as “satisfied” or “very satisfied”) on the Hair Satisfaction Patient Reported Outcome (SPRO) scale at Week 24, 20, 16, 12, and 8.
The Hair Satisfaction Patient Reported Outcome (SPRO) was also determined based on the 5-point SPRO scale from baseline through Week 24 among primary endpoint responders. The subjects that received a SALT score ≤20 at Week 24 in the THRIVE-AA1 and THRIVE-AA2 trials were included in the analysis. […]
The SPRO was evaluated in 3 different ways: the percentage of responders, the change from baseline, and the percentage of subjects achieving a ≥2.0 point change from baseline.

subjects with AA [3] = experiment: Open-label extension (OLE) studies: SALT score; type: in vivo, human; conditions: 12 mg BID in OLE, placebo in the earlier studies, 52 weeks
Source text: Subjects completing 24 weeks of treatment with […]
(§2) The qualifying clinical trials including the following: 1. NCT03137381; 2. NCT03811912; 3. NCT03941548; 4. NCT04784533; 5. NCT04518995; and 6. NCT04797650 (all available a at https://clinicaltrials.gov).
The OLE Efficacy Population is defined as all subjects who received at least one dose of deuruxolitinib and had at least one post-baseline SALT assessment in OLE. The data analyses include subjects' data from the qualifying trial. Missing SALT scores were not imputed. The number of subjects decreases over time due to missing data, patient discontinuations, or subjects not yet at the later timepoints. Any SALT data after a qualifying dose change in the OLE was censored for all figures included here, except those showing the overall treatment sequence. A “qualifying dose change” referred to herein can be placebo in any qualifying trial to any dose of deuruxolitinib in the OLE (includes subjects who switched doses), or any dose of deuruxolitinib in a qualifying trial to any dose of deuruxolitinib in the OLE. Various analyses using SALT scores were conducted to best estimate the overall long-term effect of deuruxolitinib considering the issues with dose changes and decreasing patient numbers over time. “Any Dose” analysis tracks all active subjects over time pooled across the two doses. […]

subjects with AA [4] = experiment: Open-label extension (OLE) studies: safety; type: in vivo, human
Source text: as §2

[2H]C1([2H])C([C@@H](CC#N)n2cc(-c3ncnc4[nH]ccc34)cn2)C([2H])([2H])C([2H])([2H])C1([2H])[2H] [CTP-543, (R)-3-(4-(7H-pyrrolo[2,3-d]pyrimidin-4-yl)-1H-pyrazol-1-yl)-3-(cyclopentyl-2,2,3,3,4,4,5,5-d8) propanenitrile]
Clast [1]: 0.898 (116.3) ng/mL
plasma protein binding, difference between cohorts (plasma protein): no meaningful differences
SPRO Responders: Yes ([2]; 12 mg BID (N = 127), Week 24, non-missing data): 62 (51.7) n (%)
percentage of subjects with a ≥2 point change from baseline on SPRO ([2]; week 16, non-missing data): 57.4%
percentage of subjects with a ≥2 point change from baseline on SPRO ([2]; week 24, non-missing data): 61.7%
mean SALT score (subjects with AA [3]): 43.0
number of serious treatment-related TEAEs (subjects with AA [4]; OLE studies): remains low
tolerability (subjects with AA [4]; OLE studies): generally well tolerated
subjects with related thrombotic events (subjects with AA [4]; all at the 12 mg BID dose, following ≥52 weeks of dosing): four
treatment-emergent adverse event findings (subjects with AA [4]; integrated analyses): consistent with the safety profiles observed for other JAK inhibitors
